Experimental data published in ChEMBL document CHEMBL3885881, “DrugMatrix”.

Species on record: Rattus norvegicus
Experiment: DrugMatrix - Regimen: Daily Repeat
Assay type: toxicity, organism-based, Sprague-Dawley
Design: regimen Daily Repeat, gender Male, age 6-8 weeks
Conditions: in vivo, po, route oral GAVAGE, vehicle 100 % SALINE; for ABSOLUTE BASOPHIL / ABSOLUTE EOSINOPHIL / ABSOLUTE LYMPHOCYTE / ABSOLUTE MONOCYTE / ABSOLUTE SEGMENTED NEUTROPHIL / BASOPHIL / EOSINOPHIL / ERYTHROCYTE COUNT / HEMATOCRIT / HEMOGLOBIN / LEUKOCYTE COUNT / LYMPHOCYTE / MEAN CORPUSCULAR HEMOGLOBIN / MEAN CORPUSCULAR HEMOGLOBIN CONCENTRATION / MEAN CORPUSCULAR VOLUME / MONOCYTE / NEUTROPHIL / NUCLEATED RED BLOOD CELLS / PLATELET COUNT: tissue Blood; for ALANINE AMINOTRANSFERASE / ALBUMIN / ALKALINE PHOSPHATASE / ASPARTATE AMINOTRANSFERASE / BLOOD UREA NITROGEN / CARBON DIOXIDE / CHLORIDE / CHOLESTEROL / CREATINE PHOSPHOKINASE / CREATININE / GLUCOSE / LACTATE DEHYDROGENASE / LIPASE / PHOSPHORUS / POTASSIUM / SODIUM / TOTAL BILIRUBIN / TOTAL PROTEIN / URIC ACID: tissue Plasma
[1] = 46 mg/kg, 120 h, dose level Low, time 5 day
[2] = 360 mg/kg, 72 h, dose level High, time 3 day
[3] = 360 mg/kg, 120 h, dose level High, time 5 day

SMILES: COc1ccc2cc(CC(=O)O)ccc2c1
- ABSOLUTE BASOPHIL [1]: 0 CELLS/uL
- ABSOLUTE EOSINOPHIL [1]: 93.33 CELLS/uL
- ABSOLUTE LYMPHOCYTE [1]: 9837 CELLS/uL
- ABSOLUTE MONOCYTE [1]: 271.67 CELLS/uL
- ABSOLUTE SEGMENTED NEUTROPHIL [1]: 1398 CELLS/uL
- BASOPHIL [1]: 0%
- EOSINOPHIL [1]: 0.67%
- ERYTHROCYTE COUNT [1]: 5.65 x10E6/uL
- HEMATOCRIT [1]: 35.2%
- HEMOGLOBIN [1]: 13.83 G/DL
- LEUKOCYTE COUNT [1]: 11.6 x10E3/uL
- LYMPHOCYTE [1]: 86%
- MEAN CORPUSCULAR HEMOGLOBIN [1]: 24.5 pg
- MEAN CORPUSCULAR HEMOGLOBIN CONCENTRATION [1]: 39.33 G/DL
- MEAN CORPUSCULAR VOLUME [1]: 62.23 fL
- MONOCYTE [1]: 2.33%
- NEUTROPHIL [1]: 11%
- NUCLEATED RED BLOOD CELLS [1]: 0 /100WBC
- PLATELET COUNT [1]: 1138.33 x10E3/uL
- ALANINE AMINOTRANSFERASE [1]: 39.67 u/L
- ALBUMIN [1]: 3.93 G/DL
- ALKALINE PHOSPHATASE [1]: 339 u/L
- ASPARTATE AMINOTRANSFERASE [1]: 71 u/L
- BLOOD UREA NITROGEN [1]: 16.67 mg/dL
- CARBON DIOXIDE [1]: 37.33 mmol/L
- CHLORIDE [1]: 100 MEQ/L
- CHOLESTEROL [1]: 65.67 mg/dL
- CREATINE PHOSPHOKINASE [1]: 168 u/L
- CREATININE [1]: 0.25 mg/dL
- GLUCOSE [1]: 144.33 mg/dL
- LACTATE DEHYDROGENASE [1]: 125.67 u/L
- LIPASE [1]: 9.33 u/L
- PHOSPHORUS [1]: 9.93 mg/dL
- POTASSIUM [1]: 6.48 MEQ/L
- SODIUM [1]: 142.9 MEQ/L
- TOTAL BILIRUBIN [1]: 0.2 mg/dL
- TOTAL PROTEIN [1]: 5.57 G/DL
- URIC ACID [1]: 1.23 mg/dL
- ABSOLUTE BASOPHIL [2]: 0 CELLS/uL
- ABSOLUTE EOSINOPHIL [2]: 13.33 CELLS/uL
- ABSOLUTE LYMPHOCYTE [2]: 7596.67 CELLS/uL
- ABSOLUTE MONOCYTE [2]: 249.33 CELLS/uL
- ABSOLUTE SEGMENTED NEUTROPHIL [2]: 2774 CELLS/uL
- BASOPHIL [2]: 0%
- EOSINOPHIL [2]: 0.33%
- ERYTHROCYTE COUNT [2]: 3.71 x10E6/uL
- HEMATOCRIT [2]: 23.17%
- HEMOGLOBIN [2]: 9.43 G/DL
- LEUKOCYTE COUNT [2]: 10.63 x10E3/uL
- LYMPHOCYTE [2]: 66.67%
- MEAN CORPUSCULAR HEMOGLOBIN [2]: 25.93 pg
- MEAN CORPUSCULAR HEMOGLOBIN CONCENTRATION [2]: 41.23 G/DL
- MEAN CORPUSCULAR VOLUME [2]: 62.9 fL
- MONOCYTE [2]: 1.67%
- NEUTROPHIL [2]: 31.33%
- NUCLEATED RED BLOOD CELLS [2]: 1.67 /100WBC
- PLATELET COUNT [2]: 943 x10E3/uL
- ALANINE AMINOTRANSFERASE [2]: 45.33 u/L
- ALBUMIN [2]: 2.4 G/DL
- ALKALINE PHOSPHATASE [2]: 253 u/L
- ASPARTATE AMINOTRANSFERASE [2]: 212.33 u/L
- BLOOD UREA NITROGEN [2]: 22.33 mg/dL
- CARBON DIOXIDE [2]: 20.33 mmol/L
- CHLORIDE [2]: 99.67 MEQ/L
- CHOLESTEROL [2]: 66.67 mg/dL
- CREATINE PHOSPHOKINASE [2]: 1447.67 u/L
- CREATININE [2]: 0.17 mg/dL
- GLUCOSE [2]: 135.67 mg/dL
- LACTATE DEHYDROGENASE [2]: 735.67 u/L
- LIPASE [2]: 8.67 u/L
- PHOSPHORUS [2]: 17 mg/dL
- POTASSIUM [2]: 8 MEQ/L
- SODIUM [2]: 141 MEQ/L
- TOTAL BILIRUBIN [2]: 0.17 mg/dL
- TOTAL PROTEIN [2]: 5.13 G/DL
- URIC ACID [2]: 3.87 mg/dL
- ABSOLUTE BASOPHIL [3]: 0 CELLS/uL
- ABSOLUTE EOSINOPHIL [3]: 0 CELLS/uL
- ABSOLUTE LYMPHOCYTE [3]: 14145 CELLS/uL
- ABSOLUTE MONOCYTE [3]: 225 CELLS/uL
- ABSOLUTE SEGMENTED NEUTROPHIL [3]: 8130 CELLS/uL
- BASOPHIL [3]: 0%
- EOSINOPHIL [3]: 0%
- ERYTHROCYTE COUNT [3]: 4.19 x10E6/uL
- HEMATOCRIT [3]: 26.25%
- HEMOGLOBIN [3]: 10.55 G/DL
- LEUKOCYTE COUNT [3]: 22.5 x10E3/uL
- LYMPHOCYTE [3]: 62%
- MEAN CORPUSCULAR HEMOGLOBIN [3]: 25.2 pg
- MEAN CORPUSCULAR HEMOGLOBIN CONCENTRATION [3]: 40.2 G/DL
- MEAN CORPUSCULAR VOLUME [3]: 62.7 fL
- MONOCYTE [3]: 1%
- NEUTROPHIL [3]: 37%
- NUCLEATED RED BLOOD CELLS [3]: 0 /100WBC
- PLATELET COUNT [3]: 2123.5 x10E3/uL
- ALANINE AMINOTRANSFERASE [3]: 16.5 u/L
- ALBUMIN [3]: 2.7 G/DL
- ALKALINE PHOSPHATASE [3]: 153.5 u/L
- ASPARTATE AMINOTRANSFERASE [3]: 50 u/L
- BLOOD UREA NITROGEN [3]: 14 mg/dL
- CARBON DIOXIDE [3]: 28 mmol/L
- CHLORIDE [3]: 103 MEQ/L
- CHOLESTEROL [3]: 71.5 mg/dL
- CREATINE PHOSPHOKINASE [3]: 441 u/L
- CREATININE [3]: 0.14 mg/dL
- GLUCOSE [3]: 156.5 mg/dL
- LACTATE DEHYDROGENASE [3]: 371.5 u/L
- LIPASE [3]: 8 u/L
- PHOSPHORUS [3]: 10.3 mg/dL
- POTASSIUM [3]: 5.81 MEQ/L
- SODIUM [3]: 139.25 MEQ/L
- TOTAL BILIRUBIN [3]: 0.1 mg/dL
- TOTAL PROTEIN [3]: 4.85 G/DL
- URIC ACID [3]: 2.15 mg/dL
